The term IC50 denotes the concentration that gives 50% inhibition. A low value points to greater potency.

The target of one test is TBK1 (Homo sapiens (Human), UniProt Q9UHD2). In words: TBK Biochemical Assay. The gist of the method:
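Enzyme and substrate with compound (10-point 1:4 series, top 30 uM final, 1% DMSO) incubated 90 min at 25 °C, then stopped; substrate/product separated and read by LabChip mobility-shift, staurosporine 10 uM final as full-inhibition control.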

For the next test, the target named is IKKe (Homo sapiens (Human), UniProt Q14164). The experiment in a line: IKKe Biochemical Assay. The gist of the method:
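Human IKKε activity was measured with compounds in a 10-point 1:4 dilution series, top concentration 30 uM final, in 1% DMSO final; 10 uM staurosporine served as the control. Enzyme and substrate were incubated 90 min at 25° C, then stopped, and substrate/product peaks were separated by microfluidic mobility-shift on a LabChip EZ Reader II.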

Sequence of IKKe (Q14164 whole entry, species assumed): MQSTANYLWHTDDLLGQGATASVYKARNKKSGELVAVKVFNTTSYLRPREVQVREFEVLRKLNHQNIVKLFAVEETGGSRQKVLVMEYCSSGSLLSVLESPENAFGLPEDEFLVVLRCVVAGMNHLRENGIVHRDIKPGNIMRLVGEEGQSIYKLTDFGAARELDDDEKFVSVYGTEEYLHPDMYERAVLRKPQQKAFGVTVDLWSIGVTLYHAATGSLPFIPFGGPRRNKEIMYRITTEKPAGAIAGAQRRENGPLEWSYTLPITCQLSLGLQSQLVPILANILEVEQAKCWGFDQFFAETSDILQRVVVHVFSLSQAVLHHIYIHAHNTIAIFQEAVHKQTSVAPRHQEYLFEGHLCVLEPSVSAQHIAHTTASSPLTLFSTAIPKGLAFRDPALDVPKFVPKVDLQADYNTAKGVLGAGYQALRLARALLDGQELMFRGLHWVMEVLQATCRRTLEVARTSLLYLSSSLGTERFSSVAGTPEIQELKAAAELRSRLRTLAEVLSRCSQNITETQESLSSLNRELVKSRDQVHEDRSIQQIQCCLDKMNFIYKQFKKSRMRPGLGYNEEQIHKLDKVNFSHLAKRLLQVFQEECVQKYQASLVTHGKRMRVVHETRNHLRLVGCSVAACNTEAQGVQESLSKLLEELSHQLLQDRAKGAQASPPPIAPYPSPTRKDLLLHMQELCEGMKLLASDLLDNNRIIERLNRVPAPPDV
Sequence of TBK1 (Q9UHD2 whole entry, species assumed): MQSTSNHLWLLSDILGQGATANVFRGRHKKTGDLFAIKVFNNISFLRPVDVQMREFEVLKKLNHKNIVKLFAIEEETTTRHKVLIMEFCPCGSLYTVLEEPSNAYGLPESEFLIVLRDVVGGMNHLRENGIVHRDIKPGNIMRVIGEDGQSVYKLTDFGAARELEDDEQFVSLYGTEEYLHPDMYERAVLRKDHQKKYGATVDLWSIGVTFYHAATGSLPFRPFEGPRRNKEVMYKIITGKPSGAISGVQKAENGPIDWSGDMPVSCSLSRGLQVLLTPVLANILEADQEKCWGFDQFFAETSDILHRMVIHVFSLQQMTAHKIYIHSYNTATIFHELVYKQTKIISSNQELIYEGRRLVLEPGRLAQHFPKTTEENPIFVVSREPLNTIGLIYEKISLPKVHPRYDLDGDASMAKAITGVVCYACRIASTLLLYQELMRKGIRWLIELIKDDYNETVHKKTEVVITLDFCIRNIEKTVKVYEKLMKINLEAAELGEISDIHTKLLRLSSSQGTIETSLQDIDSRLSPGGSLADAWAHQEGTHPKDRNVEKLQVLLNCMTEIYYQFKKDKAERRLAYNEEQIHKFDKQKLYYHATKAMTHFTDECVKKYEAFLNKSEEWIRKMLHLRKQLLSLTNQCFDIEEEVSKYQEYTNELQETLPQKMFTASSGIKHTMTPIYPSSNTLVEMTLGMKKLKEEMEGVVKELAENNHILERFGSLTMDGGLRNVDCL

With `COc1nc(Nc2cc(-c3ccc(O[C@@H]4CCN(C(=O)[C@@H](C)O)CC4(F)F)c(C#N)c3)ncn2)ccc1N1CCN(C2COC2)C[C@@H]1C` [Example 98, 2-((R)-3,3-difluoro-1-((R)-2-hydroxypropanoyl)piperidin-4-yloxy)-5-(6-(6-methoxy-5-((S)-2-methyl-4-(oxetan-3-yl)piperazin-1-yl)pyridin-2-ylamino)pyrimidin-4-yl)benzonitrile], the concentration for half-maximal inhibition (IC50) against TBK1 and on IKKe was below 100 nM each time.
With `COc1nc(Nc2cc(-c3ccc(O[C@H]4CCN(C(=O)[C@@H](C)O)CC4(F)F)c(C#N)c3)ncn2)ccc1N1CCN(C2COC2)C[C@@H]1C` [Example 99, 2-((S)-3,3-difluoro-1-((R)-2-hydroxypropanoyl)piperidin-4-yloxy)-5-(6-(6-methoxy-5-((S)-2-methyl-4-(oxetan-3-yl)piperazin-1-yl)pyridin-2-ylamino)pyrimidin-4-yl)benzonitrile], the half-maximal inhibitory concentration (IC50) against TBK1 and at IKKe was below 100 nM in each case.
`COc1nc(Nc2cc(-c3ccc(OC4CCOCC4)c(C#N)c3)ncn2)ccc1N1CCN(C2COC2)CC1` [Example 100, 5-[6-({6-methoxy-5-[4-(oxetan-3-yl)piperazin-1-yl]pyridin-2-yl}amino)pyrimidin-4-yl]-2-(oxan-4-yloxy)benzonitrile]: the IC50 against TBK1 and at IKKe was below 100 nM in each case.
Consider `COc1nc(Nc2cc(-c3ccc(O[C@H]4CCN(C(=O)[C@H](C)O)CC4(F)F)c(C#N)c3)ncn2)ccc1N1CCN(C2COC2)C[C@@H]1C` [Example 101, 2-[[(4S)-3,3-difluoro-1-[(2S)-2-hydroxypropanoyl]piperidin-4-yl]oxy]-5-[6-([6-methoxy-5-[(2S)-2-methyl-4-(oxetan-3-yl)piperazin-1-yl]pyridin-2-yl]amino)pyrimidin-4-yl]benzonitrile], for which the concentration for half-maximal inhibition (IC50) on TBK1 and against IKKe was below 100 nM in each case.
Take `COc1nc(Nc2cc(-c3ccc(O[C@@H]4CCN(C(=O)[C@H](C)O)CC4(F)F)c(C#N)c3)ncn2)ccc1N1CCN(C2COC2)C[C@@H]1C` [Example 102, 2-[[(4R)-3,3-difluoro-1-[(2S)-2-hydroxypropanoyl]piperidin-4-yl]oxy]-5-[6-([6-methoxy-5-[(2S)-2-methyl-4-(oxetan-3-yl)piperazin-1-yl]pyridin-2-yl]amino)pyrimidin-4-yl]benzonitrile]: the half-inhibitory concentration (IC50) at TBK1 and against IKKe was below 100 nM throughout.
As for `COc1nc(Nc2cc(-c3ccc(O[C@H]4CCN(C(=O)[C@H](C)O)CC4(F)F)c(C#N)c3)ncn2)ccc1N1CCN(C2COC2)C[C@H]1C` [Example 103, 2-[[(4S)-3,3-difluoro-1-[(2S)-2-hydroxypropanoyl]piperidin-4-yl]oxy]-5-[6-([6-methoxy-5-[(2R)-2-methyl-4-(oxetan-3-yl)piperazin-1-yl]pyridin-2-yl]amino)pyrimidin-4-yl]benzonitrile], the IC50 against TBK1 and against IKKe was below 100 nM throughout.
On to `COc1nc(Nc2cc(-c3ccc(O[C@@H]4CCN(C(=O)[C@H](C)O)CC4(F)F)c(C#N)c3)ncn2)ccc1N1CCN(C2COC2)C[C@H]1C` [Example 104, 2-[[(4R)-3,3-difluoro-1-[(2S)-2-hydroxypropanoyl]piperidin-4-yl]oxy]-5-[6-([6-methoxy-5-[(2R)-2-methyl-4-(oxetan-3-yl)piperazin-1-yl]pyridin-2-yl]amino)pyrimidin-4-yl]benzonitrile], for which the IC50 against TBK1 and on IKKe was below 100 nM each time.
Consider `COc1nc(Nc2cc(-c3ccc(OC4CCN(C(=O)[C@H](C)O)CC4)c(C#N)c3)ncn2)ccc1C(=O)N(C)C` [Example 105, 6-([6-[3-cyano-4-([1-[(2S)-2-hydroxypropanoyl]piperidin-4-yl]oxy)phenyl]pyrimidin-4-yl]amino)-2-methoxy-N,N-dimethylpyridine-3-carboxamide], for which the IC50 on TBK1 and at IKKe was below 100 nM throughout.

The values above are taken from patent publication US11440899B2, “Pyrimidine TBK/IKKe inhibitor compounds and uses thereof” (Merck Patent GmbH, priority 2017, dated 2022).
